Earlier results as cited in patent US20110077395A1, “INHIBITORS OF 11-BETA HYDROXYSTEROID DEHYDROGENASE TYPE I” (Bristol-Myers Squibb Company, priority 2005, published 2011).

Test system: hepatic glucose production
Conditions: mildly overweight individuals with type 2 diabetes, seven days, versus placebo

CC1(C)[C@@H](OC(=O)CCC(=O)O)CC[C@]2(C)[C@H]3C(=O)C=C4[C@@H]5C[C@@](C)(C(=O)O)CC[C@]5(C)CC[C@@]4(C)[C@]3(C)CC[C@@H]12 [carbenoxolone]
hepatic glucose production: decrease in hepatic glucose production
